Results on 3 molecules are retold here after patent US10781472B2, “Systems and methods for determining cyclic nucleotide concentration and related pathway activation” (PROMEGA CORPORATION, priority 2005, dated 2020).

SMILES strings stand for the structures.

In one assay the target is phosphodiesterase PDE V (Homo sapiens, UniProt O76074). The experiment in a line: cGMP-PDE (PDE V) activity in the presence of inhibitor, PKA/Kinase-Glo luminescence. The class given is biochemical. The following applies: 15 U PDE V, cGMP substrate, 30 min (FIG. 7B).
Assay [1] has as its target T1, Holoenzyme-R-II α protein kinase A (Homo sapiens, UniProt P13861).
T1 construct: purchased BIAFFIN GmbH & Co., Kassel, Germany
Briefly: Side by side titration of cAMP and cGMP for activation of PKA. It counts as biochemical. The following applies: FIG. 6. The method, then: Two-fold serial dilutions of cAMP and cGMP (initial concentration of both 40 μM) were made in Stop Buffer without ATP and IBMX, but supplemented with 2 μM ATP. Twenty-five μl of the dilutions were aliquoted into white 96-well plates, followed by the addition of 25 μl of a PKA/substrate reagent containing 100 ng/well Holoenzyme-R-II α protein kinase A, 20 μM Kemptide, 40 mM Tris HCl pH 7.5, 20 mM MgCl2, and 0.1 mg/ml BSA. The reactions were allowed to incubate for 20 min. at room temperature, and 50 μl of Kinase-Glo™ Reagent was added followed by an additional 10 min. incubation. Luminescence was measured 10 min. after addition of the Kinase-Glo™ Reagent and output was recorded as RLUs (n=2) and plotted against cyclic nucleotide (cNMP) concentration using GraphPad Prism® Software Version 4.0.

In assay [2] the target is dopamine receptor D1 (DRD1) (Homo sapiens, UniProt P21728). The following applies: 1 μg DRD1 plasma membranes, 15 min induction (FIG. 10).
dopamine receptor D1 (DRD1), sequence (P21728 whole entry): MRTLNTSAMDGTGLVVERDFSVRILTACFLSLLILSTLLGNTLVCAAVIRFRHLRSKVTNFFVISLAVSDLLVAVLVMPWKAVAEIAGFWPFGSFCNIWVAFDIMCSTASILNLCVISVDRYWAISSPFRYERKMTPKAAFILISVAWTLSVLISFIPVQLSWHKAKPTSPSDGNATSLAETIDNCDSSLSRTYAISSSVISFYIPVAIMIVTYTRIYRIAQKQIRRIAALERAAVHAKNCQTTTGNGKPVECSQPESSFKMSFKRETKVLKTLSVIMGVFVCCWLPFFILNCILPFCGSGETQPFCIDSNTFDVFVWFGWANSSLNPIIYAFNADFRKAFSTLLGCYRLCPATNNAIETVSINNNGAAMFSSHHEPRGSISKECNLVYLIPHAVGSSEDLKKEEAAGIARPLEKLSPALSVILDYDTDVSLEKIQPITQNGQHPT
Experimental: Plasma membranes (1 μg of protein in 25 μl of Stimulation Buffer) and 10 μM GDP were added to the wells of a 96-well plate and incubated at room temperature for 10 minutes. Twenty microliters of each compound dilution was added to specific wells. Induction was carried out for 15 minutes at room temperature followed by addition of 40 μl of PKA/Substrate Reagent. The reactions were allowed to incubate for an additional 20 minutes at room temperature followed by addition of 80 μl of Kinase-Glo™ Reagent. Luminescence was read 10 minutes after addition of the Kinase-Glo™ Reagent and output was recorded as relative light units (RLU) and plotted against forskolin concentration using GraphPad Prism® Software Version 4.0.

T1 sequence (P13861 whole entry): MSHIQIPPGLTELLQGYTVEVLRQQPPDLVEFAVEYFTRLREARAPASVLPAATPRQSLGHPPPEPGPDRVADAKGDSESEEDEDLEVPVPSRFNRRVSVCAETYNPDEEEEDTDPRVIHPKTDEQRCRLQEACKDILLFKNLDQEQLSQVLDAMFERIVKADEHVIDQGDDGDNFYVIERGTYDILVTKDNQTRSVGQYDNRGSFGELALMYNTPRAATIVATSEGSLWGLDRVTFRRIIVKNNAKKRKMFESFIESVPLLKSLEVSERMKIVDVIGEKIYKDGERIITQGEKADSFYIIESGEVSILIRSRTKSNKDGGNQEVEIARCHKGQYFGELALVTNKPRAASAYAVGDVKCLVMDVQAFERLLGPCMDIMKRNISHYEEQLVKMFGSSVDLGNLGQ
Experimental for phosphodiesterase PDE V: A two-fold serial dilution of Zaprinast (20 μM) was made in Stop Buffer without IBMX and ATP, supplemented with 10 μM cGMP. An enzyme solution containing PDE V was also made so that every 12.5 μl of the enzyme solution contained 15 U (Stop Buffer without IBMX and ATP) of the enzyme. An aliquot (12.5 μl) of each dilution was added to the reaction wells and an equal amount of the phosphodiesterase PDEV enzyme solution was added to start the reaction. The plate was incubated for 30 min. at room temperature, followed by addition of 12.5 μl of Stop Buffer supplemented with 1.5 mM IBMX and 4 μM ATP to stop the reaction. An equal volume of a PKA/substrate reagent containing 100 ng/well Holoenzyme-R-II α protein kinase A, 40 μM Kemptide, 40 mM Tris HCl pH 7.5, 20 mM MgCl2, and 0.1 mg/ml BSA was added to each well, the plate was incubated for an additional 20 min., and 50 μl of Kinase-Glo™ Reagent was added.

Consider `CCCOc1ccccc1-c1nc2nn[nH]c2c(=O)[nH]1` [Zaprinast], for which, on phosphodiesterase PDE V, the “relative light units as inhibitor amount increases (PDE V inhibition)” value was “relative light units decrease”. On to `Nc1nc2c(ncn2[C@@H]2O[C@@H]3COP(=O)(O)O[C@H]3[C@H]2O)c(=O)[nH]1` [cGMP, guanosine 3′, 5′cyclic monophosphate], for which, in assay [1], the “binding to regulatory subunits of PKA, affinity relative to cAMP” value is reported as “lower affinity than that of cAMP”. Consider `Oc1cc2c(cc1O)C(c1ccccc1)CNCC2` (stereo not drawn) [SKF38393, 1-Phenyl-2,3,4,5-tetrahydro-(1H)-3-benzazepine-7,8-diol], for which, in assay [2], the “luminescent signal as agonist concentration increases (DRD1 activation)” value was “luminescent signal decreases”.
